Results taken from ChEMBL document CHEMBL5042502, “Discovery of Potent and Selective 2-(Benzylthio)pyrimidine-based DCN1-UBC12 Inhibitors for Anticardiac Fibrotic Effects” (J Med Chem, 2022).
Activity calls are given as the source filed them. The rule behind the calls is not given here.

What was measured:
[1] = tested on: Cardiac fibroblast; assay: Inhibition of intracellular DCN1 in Sprague-Dawley rat cardiac fibroblast measured between 42 to 62 degC at 10 uM incubated for 5 hrs by cellular thermal shift assay; type: cell-based
[2] = molecular target: T1, DCN1-like protein 1 (Homo sapiens, UniProt Q96GG9); assay: Binding affinity to DCN1 (unknown origin) assessed as inhibitory constant
Target sequence in this assay (Q96GG9 whole entry): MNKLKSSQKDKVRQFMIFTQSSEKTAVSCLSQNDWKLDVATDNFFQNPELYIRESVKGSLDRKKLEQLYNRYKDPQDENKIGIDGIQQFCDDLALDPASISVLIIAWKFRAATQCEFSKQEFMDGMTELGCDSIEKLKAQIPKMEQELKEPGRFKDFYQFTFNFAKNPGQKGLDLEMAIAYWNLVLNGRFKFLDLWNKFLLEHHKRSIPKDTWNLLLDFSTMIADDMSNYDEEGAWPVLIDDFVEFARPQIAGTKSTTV

[3] = tested on: Fibroblast of cardiac tissue; assay: Effect on Ang II-induced in Cul4B neddylation in mouse cardiac fibroblast at 1 uM preincubated for 2 hrs followed by Ang-II stimulation and further incubated for 24 hrs by western blot analysis; type: functional, cell-based; conditions: time 26.0 hrs
[4] = Toxicity in 24 hr starved C57BL/6 mouse assessed as change in cardiac function at 2 g/Kg administered via gavage measured after 2 weeks by echocardiography; conditions: in vivo, po, 2000 mg/kg
[5] = tested on: Fibroblast of cardiac tissue; assay: Reversal of Ang II-induced increase in cullin 3 secretion in mouse cardiac fibroblast at 1 uM preincubated for 2 hrs followed by Ang-II stimulation and further incubated for 24 hrs by western blot analysis; type: functional, cell-based; conditions: time 26.0 hrs
[6] = tested on: Fibroblast of cardiac tissue; assay: Antifibrotic effect in SD rat cardiac fibroblast assessed as reduction in Ang II-induced collagen I upregulation preincubated for 2 hrs followed by Ang II-stimulation and further incubated for 24 hrs by western blot analysis (reference value: 71 %); type: functional; conditions: time 26 hrs
[7] = molecular target: T2, DCN1-like protein 5 (Homo sapiens, UniProt Q9BTE7); assay: Binding affinity to DCN5 (unknown origin) assessed as inhibitory constant
T2 sequence (Q9BTE7 whole entry): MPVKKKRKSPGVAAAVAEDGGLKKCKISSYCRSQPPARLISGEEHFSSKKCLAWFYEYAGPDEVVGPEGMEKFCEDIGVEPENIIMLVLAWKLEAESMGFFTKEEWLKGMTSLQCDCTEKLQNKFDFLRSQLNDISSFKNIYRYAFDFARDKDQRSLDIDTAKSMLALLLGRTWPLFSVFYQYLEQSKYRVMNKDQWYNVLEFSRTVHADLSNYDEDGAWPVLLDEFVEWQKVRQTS

[8] = Toxicity in 24 hr starved C57BL/6 mouse assessed as pathological change in heart at 2 g/Kg administered via gavage measured after 2 weeks by H and E staining based histopathological analysis; type: tissue-based; conditions: in vivo, po, 2000 mg/kg
[9] = tested on: Fibroblast of cardiac tissue; assay: Reversal of Ang II-induced increase in DCN1 secretion in mouse cardiac fibroblast at 1 uM preincubated for 2 hrs followed by Ang-II stimulation and further incubated for 24 hrs by western blot analysis; type: functional, cell-based; conditions: time 26.0 hrs
[10] = tested on: Fibroblast of cardiac tissue; assay: Effect on Ang II-induced in Cul5 neddylation in mouse cardiac fibroblast at 1 uM preincubated for 2 hrs followed by Ang-II stimulation and further incubated for 24 hrs by western blot analysis; type: functional, cell-based; conditions: time 26.0 hrs
[11] = molecular target: T1, DCN1-like protein 1; assay: Inhibition of GST-tagged DCN1 (unknown origin) using AcUBE2M1-21 incubated for 30 mins by HTRF assay
Target sequence in this assay (Q96GG9 whole entry): as the sequence (Q96GG9 whole entry) above

[12] = Toxicity in 24 hr starved C57BL/6 mouse assessed as pathological change in spleen at 2 g/Kg administered via gavage measured after 2 weeks by H and E staining based histopathological analysis; type: tissue-based; conditions: in vivo, po, 2000 mg/kg
[13] = Cytotoxicity against Sprague-Dawley rat cardiac fibroblast by MTT assay; type: toxicity, cell-based, Fibroblast of cardiac tissue; conditions: cardiac fibroblasts
[14] = tested on: Fibroblast of cardiac tissue; assay: Antifibrotic effect in SD rat cardiac fibroblast assessed as reduction in Ang II-induced activation of Nrf2 signaling pathway preincubated for 2 hrs followed by Ang II-stimulation and further incubated for 24 hrs by western blot analysis (reference value: 43 %); type: functional; conditions: time 26 hrs
[15] = Toxicity in 24 hr starved C57BL/6 mouse assessed as change in body weight at 2 g/Kg administered via gavage measured upto 2 weeks; conditions: in vivo, po, 2000 mg/kg
[16] = molecular target: T1, DCN1-like protein 1
Target sequence in this assay (Q96GG9 whole entry, looked up): as the sequence (Q96GG9 whole entry) above
Description: Binding affinity to DCN1 (unknown origin) assessed as change in entropy by MM-PBSA method

[17] = tested on: Fibroblast of cardiac tissue; assay: Effect on Cul1 neddylation in mouse cardiac fibroblast at 1 uM preincubated for 2 hrs by Western blot analysis; type: functional, cell-based
[18] = tested on: Fibroblast of cardiac tissue; assay: Reversal of Ang II-induced decrease in Nrf2 secretion in mouse cardiac fibroblast at 1 uM preincubated for 2 hrs followed by Ang-II stimulation and further incubated for 24 hrs by western blot analysis; type: functional, cell-based; conditions: time 26.0 hrs
[19] = tested on: Cardiac fibroblast; assay: Inhibition of DCN1 in Sprague-Dawley rat cardiac fibroblast assessed as suppression in DCN1-UBC12 interaction by measuring reduction in UBC12 level at 10 uM incubated for 5 hrs co-incubated with DCN1 antibody by co-immunoprecipitation pull down assay; type: cell-based
[20] = tested on: Fibroblast of cardiac tissue; assay: Effect on Ang II-induced in Cul1 neddylation in mouse cardiac fibroblast at 1 uM preincubated for 2 hrs followed by Ang-II stimulation and further incubated for 24 hrs by western blot analysis; type: functional, cell-based; conditions: time 26.0 hrs
[21] = molecular target: T1, DCN1-like protein 1; assay: Binding affinity to […] DCN1 (unknown origin) assessed as dissociation constant incubated for upto 180 secs by label-free biolayer interferometry assay
Target sequence in this assay (Q96GG9 whole entry): as the sequence (Q96GG9 whole entry) above

[22] = tested on: Cardiac fibroblast; assay: Inhibition of DCN1 in Ang II-treated Sprague-Dawley rat cardiac fibroblast assessed as decrease in cell migration preincubated for 2 hrs followed by Ang-II stimulation and further incubated for 24 hrs by scratch wound healing assay based microscopy; conditions: Sprague-Dawle, time 26.0 hrs
[23] = Toxicity in 24 hr starved C57BL/6 mouse assessed as pathological change in kidney at 2 g/Kg administered via gavage measured after 2 weeks by H and E staining based histopathological analysis; type: tissue-based; conditions: in vivo, po, 2000 mg/kg
[24] = tested on: Fibroblast of cardiac tissue; assay: Effect on Ang II-induced in Cul4A neddylation in mouse cardiac fibroblast at 1 uM preincubated for 2 hrs followed by Ang-II stimulation and further incubated for 24 hrs by western blot analysis; type: functional, cell-based; conditions: time 26.0 hrs
[25] = tested on: Fibroblast of cardiac tissue; assay: Effect on Cul5 neddylation in mouse cardiac fibroblast at 1 uM preincubated for 2 hrs by Western blot analysis; type: functional, cell-based
[26] = tested on: Fibroblast of cardiac tissue; assay: Effect on Cul2 neddylation in mouse cardiac fibroblast at 1 uM preincubated for 2 hrs by Western blot analysis; type: functional, cell-based
[27] = tested on: Cardiac fibroblast; assay: Inhibition of DCN1 in Ang II-treated Sprague-Dawley rat cardiac fibroblast assessed as inhibition of cell proliferation preincubated for 2 hrs followed by Ang-II stimulation and further incubated for 24 hrs by MTT assay; type: cell-based; conditions: dose 0.1-3 µM, time 26.0 hrs
[28] = Toxicity in 24 hr starved C57BL/6 mouse assessed as animal survival at 2 g/Kg administered via gavage measured upto 2 weeks; conditions: in vivo, po, 2000 mg/kg
[29] = tested on: Fibroblast of cardiac tissue; assay: Antifibrotic effect in SD rat cardiac fibroblast transfected with DCN1 siRNA assessed as effect on collagen III expression at 1 uM preincubated for 2 hrs followed by Ang II-stimulation and further incubated for 24 hrs by western blot analysis; type: functional, cell-based; conditions: time 26.0 hrs
[30] = Toxicity in 24 hr starved C57BL/6 mouse assessed as pathological change in lungs at 2 g/Kg administered via gavage measured after 2 weeks by H and E staining based histopathological analysis; conditions: in vivo, po, 2000 mg/kg
[31] = tested on: Fibroblast of cardiac tissue; assay: Reversal of Ang II-induced increase in collagen I secretion in mouse cardiac fibroblast at 1 uM preincubated for 2 hrs followed by Ang-II stimulation and further incubated for 24 hrs by western blot analysis; type: functional, cell-based; conditions: time 26.0 hrs

Structure (SMILES): COc1cc(-c2nc(SCc3ccc(Cl)cc3)nc(Sc3nnnn3C)c2C#N)cc(OC)c1OC
- inhibition [1]: Active
- Ki [2]: 8.26 nM
- Activity [3]: Active
- Activity [4]: Non-Toxic
- Activity [5]: Active
- inhibition (INH) [6]: 33%
- Ki [7]: 28900 nM
- Activity [8]: Non-Toxic
- Activity [9]: Active
- Activity [10]: Active
- IC50 [11]: 9.55 nM
- Activity [12]: Non-Toxic
- IC50 [13]: 27300 nM
- inhibition (INH) [14]: 37%
- Activity [15]: Non-Toxic
- -TdeltaS [16]: 11.2 kcal/mol
- Activity [17]: Active
- Activity [18]: Active
- inhibition [19]: Active
- Activity [20]: Active
- Kd [21]: 26 nM
- inhibition [22]: Active
- Activity [23]: Non-Toxic
- Activity [24]: Active
- Activity [25]: Active
- Activity [26]: Active
- inhibition [27]: Active
- Activity [28]: Non-Toxic
- inhibition [29]: inactive
- Activity [30]: Non-Toxic
- Activity [31]: Active
